Laboratory results published in patent publication US6693118B2, “Use of 4-substituted tetrahydropyridines for the manufacture of medicaments acting upon TGF-β1” (Sanofi-Synthelabo, priority 1997, dated 2004).

Key:
Format in all cases: cell-based
[1] = system: smooth muscle cells isolated from the human aorta; experiment: Anti-apoptotic effect, apoptosis induced by NGF (oligonucleosome ELISA); conditions: NGF 0.01 ng/ml to 100 ng/ml; after 24 hours of contact with the cells
Method: (§1) The anti-apoptotic activity was measured on the same cells vis-à-vis the pro-apoptotic activity of a deprivation in serum or after the addition of toxic compounds such as vincristine or growth factors such as nerve growth factor (NGF) with the aid of a specific ELISA (enzyme-linked immunosorbent assay) determination kit which detects the presence of oligonucleosomes the presence of which inside the cells is a specific marker of programmed cell death (apoptosis), according to the method described by Del Bino G. et al., (Experimental Cell Research, 193, 27, 1991 and 195, 485, 1991) or Darzynkiewicz A et al., (Cytometry, 13, 795, 1992).
(§2) 40,000 smooth muscle cells isolated from the human aorta (supplier: CLONETICS) are placed, in a […], in a medium containing 2 ml of DMEM (Dulbecco Modified Eagle Medium containing 4.5 g/l of glucose, 3.7 g/l of NaHCO3 and not containing any L-glutamine or Na-pyruvate). 20% v/v of foetal calf serum which was desupplemented for 30 min at […] , 4 mM L-glutamine, 50 U/ml of penicillin and 50 μg/ml of streptomycin are added. The cells are left in this medium for a growth period of three days before submitting them to tests according to the examples given further on.
(§3) Dishes containing the cells are prepared as in PREPARATION 1. Apoptosis is induced by three different methods:
b) by adding increasing doses of NGF (0.01 ng/ml to 100 ng/ml) to the medium described in PREPARATION 1;
(§4) By an ELISA determination test of the mono- and oligo-nucleosomes associated with cytoplasmic histones after washing and cellular lysis, the effects of the compounds of the invention upon the apoptosis are measured after 24 hours of contact with the cells in comparison with the levels of apoptosis obtained in the absence of products (maximum apoptosis level) or in the presence of 20% foetal calf serum (minimum apoptosis level).
Dishes containing cells are prepared as in PREPARATION 1. Apoptosis is induced according to method b) of PREPARATION 4. The apoptosis levels are measured after 24 hours of contact with the cells by the method described in PREPARATION 4; the same controls as in PREPARATION 4 are used.

[2] = system: smooth muscle cells isolated from the human aorta; experiment: Anti-apoptotic effect, apoptosis induced by vincristine (oligonucleosome ELISA); conditions: Vincristin 0.1 pg/ml to 10 ng/ml; after 24 hours of contact with the cells
Method: as §1, §2, §3
c) by adding increasing doses of Vincristin (0.1 pg/ml to 10 ng/ml) to the medium described in PREPARATION 1.
as §4
Dishes containing cells are prepared as described in PREPARATION 1. Apoptosis is induced according to method c) of PREPARATION 4. The levels of apoptosis are measured after 24 hours of contact with the cells by the method described in PREPARATION 4; the same controls as in PREPARATION 4 are used.

TGF-β1 = experiment: Levels of latent and activated TGF-β1 in extracellular media of smooth muscle cell cultures (ELISA); conditions: human aortic smooth muscle cells, 0.2% foetal calf serum; after 14 hours of contact with the cells
Method: The effect of the compounds of formula (I) upon the increase of the levels of TGF-β1 was evaluated with the aid of tests upon the smooth muscle cells, as well as upon the blood levels and the diaphragms in the rat after administration of the representative compounds of the invention.
Both latent TGF-β1 and activated TGF-β1 were determined on the smooth muscle cells by incubation with hydrochloric acid.
40,000 smooth muscle cells isolated from the human aorta (supplier: CLONETICS) are placed, in a […], in a medium containing 2 ml of DMEM (Dulbecco Modified Eagle Medium containing 4.5 g/l of glucose, 3.7 g/l of NaHCO3 and not containing any L-glutamine or Na-pyruvate). […]
Dishes containing cells are prepared as described in Preparation 1. […] The activated TGF-β1 is determined directly in the supernatants of the culture, but the latent TGF-β1 is determined after activation. […]
Dishes containing cells are prepared as in PREPARATION 1. The levels of TGF-β1 are measured as described in PREPARATION 2. The levels of activated TGF-β1 are measured in the extracellular media in the presence of SR 57746A after 1, 3, 14, 24 and 48 hours and 7 days of contact with the cells, in comparison with the controls (0.2% foetal calf serum and 20% foetal calf serum) by the method described in PREPARATION 2.

| SMILES | pro-apoptotic effect of NGF [1] | pro-apoptotic effect of vincristine [2] | levels of activated TGF-β1 in the extracellular media (TGF-β1) |
| --- | --- | --- | --- |
| FC(F)(F)c1cccc(C2=CCN(CCc3ccc(-c4ccccc4)cc3)CC2)c1 [compound C, 1-[2-(biphenyl-4-yl)ethyl]-4-(3-trifluoromethylphenyl)-1,2,3,6-tetrahydropyridine] | significantly inhibit | significantly inhibit |  |
| O=C(CN1CC=C(c2cccc(C(F)(F)F)c2)CC1)c1ccc(-c2ccccc2)cc1 [compound B, 1-[2-(biphenyl-4-yl)-2-oxoethyl]-4-(3-trifluoromethylphenyl)-1,2,3,6-tetrahydropyridine] | significantly inhibit | significantly inhibit |  |
| CCc1ccc(CCN2CC=C(c3cccc(C(F)(F)F)c3)CC2)cc1CC [compound A, 1-[2-(3,4-diethylphenyl)ethyl]-4-(3-trifluoromethylphenyl)-1,2,3,6-tetrahydropyridine] | significantly inhibit | significantly inhibit |  |
| FC(F)(F)c1cccc(C2=CCN(CCc3ccc4cc5c(cc4c3)OCO5)CC2)c1 [compound D, 1-[2-(6,7-methylenedioxynaphth-2-yl)ethyl]-4-(3-trifluoromethylphenyl)-1,2,3,6-tetrahydropyridine] | significantly inhibit | significantly inhibit |  |
| FC(F)(F)c1ccccc1C1=CCN(CCc2ccc(-c3ccccc3)cc2)CC1 [compound F, 1-[2-(biphenyl-4-yl)ethyl]-4-(2-trifluoromethylphenyl)-1,2,3,6-tetrahydropyridine] | significantly inhibit | significantly inhibit |  |
| FC(F)(F)c1cccc(C2=CCN(CCc3ccc4ccccc4c3)CC2)c1 [SR 57746, 1-(2-naphth-2-ylethyl)-4-(3-trifluoromethylphenyl)-1,2,3,6-tetrahydropyridine] | significantly inhibit | significantly inhibit | significant increase |
| FC(F)(F)c1cccc(C2=CCN(CCc3ccc(C4=CCCCC4)cc3)CC2)c1 [compound E, 1-[2-(4-cyclohexenylphenyl)ethyl]-4-(3-trifluoromethylphenyl)-1,2,3,6-tetrahydropyridine] | significantly inhibit | significantly inhibit |  |
